Measured values as given in US8569339B2, “Soluble guanylate cyclase activators” (Boehringer Ingelheim International GmbH, priority 2011, dated 2013).
≈ marks a conversion by molar mass, not a printed value. Where “and” joins values, the source holds several entries; their conditions need not be identical. Identical values can stand only once.

Experiments:
[1] = biological target: T1, Recombinant human soluble guanylate cyclase (sGC) (Homo sapiens, UniProt Q02153); assay: Molecular assay: activation of heme-free sGC, cGMP detection (CisBio kit); type: biochemical; details: 300 pM heme-free sGC, 37° C., 60 minutes, cGMP formation
T1 construct: histidine tag (C); made in house; host or cells: Sf9 insect cells (baculovirus coinfection)
T1 sequence (Q02108 whole entry partner): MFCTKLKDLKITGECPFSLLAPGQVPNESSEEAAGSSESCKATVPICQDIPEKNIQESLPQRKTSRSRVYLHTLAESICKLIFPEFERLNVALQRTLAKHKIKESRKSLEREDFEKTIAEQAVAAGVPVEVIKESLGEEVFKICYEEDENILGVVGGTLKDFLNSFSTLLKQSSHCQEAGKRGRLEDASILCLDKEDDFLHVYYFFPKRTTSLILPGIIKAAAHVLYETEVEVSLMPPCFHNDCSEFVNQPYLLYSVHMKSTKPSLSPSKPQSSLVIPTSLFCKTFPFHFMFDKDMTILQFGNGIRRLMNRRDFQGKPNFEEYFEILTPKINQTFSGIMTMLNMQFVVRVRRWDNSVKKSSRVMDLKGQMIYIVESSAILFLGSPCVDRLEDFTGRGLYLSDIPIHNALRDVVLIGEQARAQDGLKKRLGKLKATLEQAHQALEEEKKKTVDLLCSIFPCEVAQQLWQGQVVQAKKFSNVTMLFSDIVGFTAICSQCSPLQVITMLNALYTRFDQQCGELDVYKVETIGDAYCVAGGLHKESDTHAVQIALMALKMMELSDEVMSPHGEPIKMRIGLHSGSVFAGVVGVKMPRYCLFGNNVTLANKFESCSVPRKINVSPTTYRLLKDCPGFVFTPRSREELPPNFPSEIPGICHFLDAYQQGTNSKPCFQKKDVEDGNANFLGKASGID
T1 sequence (Q02153 whole entry): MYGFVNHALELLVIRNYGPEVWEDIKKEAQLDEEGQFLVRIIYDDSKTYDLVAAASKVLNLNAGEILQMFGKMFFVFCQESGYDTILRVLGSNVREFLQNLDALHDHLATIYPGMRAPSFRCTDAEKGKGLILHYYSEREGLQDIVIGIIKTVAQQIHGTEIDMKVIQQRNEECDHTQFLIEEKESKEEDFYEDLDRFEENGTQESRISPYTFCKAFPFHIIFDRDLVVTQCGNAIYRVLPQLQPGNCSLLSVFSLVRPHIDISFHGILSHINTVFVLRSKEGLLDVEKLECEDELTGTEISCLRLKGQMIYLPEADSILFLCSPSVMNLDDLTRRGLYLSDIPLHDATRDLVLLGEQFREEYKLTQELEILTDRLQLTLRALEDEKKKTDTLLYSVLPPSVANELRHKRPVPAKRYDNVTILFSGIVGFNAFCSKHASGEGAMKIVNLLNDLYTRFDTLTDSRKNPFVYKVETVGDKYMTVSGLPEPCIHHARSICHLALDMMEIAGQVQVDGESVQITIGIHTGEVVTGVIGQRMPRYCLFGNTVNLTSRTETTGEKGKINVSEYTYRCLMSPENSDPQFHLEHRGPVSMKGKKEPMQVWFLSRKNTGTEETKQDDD
Protocol: The compounds of the invention may be evaluated in the following molecular assay:
Recombinant human soluble guanylate cyclase (sGC) is purified from Sf9 insect cells coinfected with baculoviruses expressing the alpha 1 or beta 1 subunit of sGC, both with a C-terminal histidine tag. Heme-free sGC is prepared by treating cell lysate with a final concentration of 0.5% Tween 20 prior to purification on a nickel affinity column.
sGC catalyzes the conversion of guanosine-5′-triphosphate (GTP) to cyclic guanosine monophosphate (cGMP). The activity of sGC is measured in vitro using the commercially available CisBio cGMP detection kit (catalog #62GM2PEB) in a 384 well format. In brief, 300 pM heme-free sGC is incubated in reaction buffer (50 mM MOPS pH 6.8, 0.2 N KOH, 50 mM NaCl, 2 mM MgCl2, 0.1% BSA, 1.25 mM IBMX, 0.25 mM TCEP, 50 nM GTP) in the presence or absence of dilutions of test compounds diluted in DMSO (final concentration of 1%) in a volume of 10 microL at 37° C. for 60 minutes. Undiluted reaction products or an 80-fold dilution of reaction products (10 microL of either) prepared in reaction buffer containing 0.2 mM TCEP and 10 mM EDTA is mixed with 5 microL of d2-cGMP plus 5 microL of Eu^3+cryptate-labeled anti-cGMP, each diluted in buffer containing 0.1 M KPO4 pH 7.5, 0.4 M KF, 20 mM EDTA, 0.2% BSA. After a one hour incubation at room temperature in the dark, the mixtures are quantified on an EnVision plate reader (PerkinElmer) according to manufacturer instructions (laser excitation 337 nm, emission 620 and 665 nm). The ratio at each compound concentration is converted to nM cGMP using the linear portion of a calibration curve. Log compound concentration is plotted against combined undiluted and diluted nM cGMP values to determine the EC50 for each curve.
Representative compounds of the present invention were tested for activity in the above assay. Preferred compounds have an IC50<5,000 nM and more preferred compounds have an IC50<100 nM in this assay.

[2] = Assessment of solubility (HT solubility, pION, UV); type: physicochemical; details: incubated 16-19 hours, 1.0% DMSO, 100 uM; for solubility kinetic: pH 4.5 buffer (pION system solution), pH 4.5, aqueous buffer, kinetic from dmso stock, read-out: Sol pH 4.5; for Sol pH 7.4: pH 7.4 buffer
Protocol: Solubility is measured by the following method.
DMSO stock samples at 10 mM conc are prepared. […] The samples are pierced and 100 ul of thawed samples are transferred into the PCR plate for analysis. Each sample is run in duplicate at each pH (pH 4.5 and 7.4). Up to 95 samples can be run in replicate at 2 pH's+1 DMSO (blank).
2. Preparation of pH 4.5 and 7.4 buffers:
pH 4.5 buffer: To 12.5 of system solution (pION) qs to 500 mL of distilled water (pH 2.85-2.90); adjust the pH to pH 4.5 with 0.5 N NaOH.
pH 7.4 buffer: To 12.5 of system solution (pION) qs to 500 mL of distilled water (pH 2.85-2.90); adjust the pH to pH 7.4 with 0.5N NaOH.
Preparation of UV blank plate:
75 ul of buffer (pH 7.4 or pH 4.5) is added to UV plate followed by addition of […] of N-propanol. The solution is mixed and the blank spectrum is read using spectrophotometer.
Preparation of Reference UV plate:
10 ul of each stock sample (including DMSO control) is added to 190 ul of N-propanol to prepare the reference stock plate. Reference stock samples are mixed and 5 ul of each stock sample is added to UV blank plate after it is read spectrophotometrically. The reference stock sample is mixed with blank solution in UV plate and the reference spectrum is read using UV spectrophotometer.
Preparation of sample for incubation:
Solubility at pH 7.4: 6 ul of each stock sample (including DMSO control) is added to the storage plate containing 600 ul of pH 7.4 buffer, mixed and incubated for 16-19 hours. The plate is sealed well during the incubation process. The DMSO content in the sample is 1.0%. The concn in deep well plates is 100 uM
6 ul of each stock sample (including DMSO control) is added to the deep well plate containing 600 ul of pH 4.5 buffer, mixed and incubated for 16-19 hours. The plate is sealed well during the incubation process. The DMSO content in the sample is 1.0%. The concn in deep well plates is 100 uM
Preparation of sample UV plate:
At the end of the incubation period, 100 uL of sample from the storage plate is vacuum filtered using a filter plate. This step wets the filters and the filtrate is discarded. Another 200 ul of the sample from the deep well plate is vacuum filtered using the same filter block but a clean filter plate. 75 ul of the filtrate from the filter plate is transferred to a UV sample plate. 75 ul of N-propanol is added to this UV plate. The solution is mixed and the spectrum is read using the UV spectrophotometer.
The spectra collected for blank, reference and sample from 250-498 nm is analyzed using pION software. If the sample precipitates out, the solubility is reported as XX μg/ml. If there is no precipitation and the sample is soluble, solubility is reported as […] (YY being the initial concentration of the compound in the sample).

| SMILES | EC50 [1] | solubility kinetic ([2]; pH 4.5 buffer) | Sol pH 7.4 [2] | Sol pH 4.5 ([2]; pH 4.5 buffer) |
| --- | --- | --- | --- | --- |
| Cc1ccc(OCc2ccc3c(c2)CCN(CC2CCCOC2)C3)c(-c2cccc(-n3ncc(C(=O)O)c3C(F)(F)F)n2)c1 (stereo not shown) [Compound 26] | 3 nM | > 60 µg/mL | >60 μg/mL |  |
| Cc1cc(CN2CCc3cc(COc4c(C)cccc4-c4cccc(-c5ncc(C(=O)O)n5C)n4)ccc3C2)no1 [Compound 72] | 27 nM | > 67 µg/mL | >67 μg/mL |  |
| Cc1cccc(-c2cccc(-c3c(C)c(C(=O)O)nn3C)n2)c1OCc1ccc2c(c1)CCN(C1CCOCC1)C2 [Compound 81] | 185 nM | 48.4 µg/mL (≈ 87.6 µM) | 31.7 μg/mL |  |
| Cc1ccc(OCc2ccc3c(c2)CCN(CCc2ccccc2)C3)c(-c2cccc(-n3ncc(C(=O)O)c3C(F)(F)F)n2)c1 [Compound 20] | 4 nM | 7.8 µg/mL (≈ 12.7 µM) | 10.7 μg/mL |  |
| Cc1ccc(OCc2ccc3c(c2)CCN(C(C)c2cnccn2)C3)c(-c2cccc(-n3ncc(C(=O)O)c3C(F)(F)F)n2)c1 (stereo not shown) [Compound 28] | 9 nM | > 61 µg/mL | >61 μg/mL |  |
| CC(=O)N1CCc2cc(COc3ccc(C)cc3-c3cccc(-n4ncc(C(=O)O)c4C(F)(F)F)n3)ccc2C1 [Compound 6, 1-{6-[2-(2-acetyl-1,2,3,4-tetrahydroisoquinolin-6-ylmethoxy)-5-methylphenyl]pyridin-2-yl}-5-trifluoromethyl-1H-pyrazole-4-carboxylic acid] | 78 nM | 0.5 µg/mL (≈ 0.908 µM) | >54 μg/mL |  |
| Cc1ccc(OCc2ccc3c(c2)CCN(C2CCCCC2)C3)c(-c2cccc(-n3ncc(C(=O)O)c3C(F)(F)F)n2)c1 [Compound 19] | 2 nM | > 58 µg/mL | >58 μg/mL |  |
| Cc1cccc(-c2cccc(-c3c(C)c(C(=O)O)nn3C3CC3)n2)c1OCc1ccc2c(c1)CCN(C1CCOCC1)C2 [Compound 91] | 160 nM | > 69 µg/mL | >69 μg/mL |  |
| Cc1ncc(CN2CCc3cc(COc4c(C)cccc4-c4cccc(-c5ncc(C(=O)O)n5C)n4)ccc3C2)s1 [Compound 70] | 37 nM | > 66 µg/mL | >66 μg/mL |  |
| Cc1cccc(-c2cccc(-c3ncc(C(=O)O)n3C)n2)c1OCc1ccc2c(c1)CCN(C1CCCCCC1)C2 [Compound 76] | 100 nM | > 66 µg/mL | >66 μg/mL |  |
| Cc1ccc(OCc2cc3c(cc2C)CN(C)CC3)c(-c2cccc(-n3ncc(C(=O)O)c3C(F)(F)F)n2)c1 [Compound 62, 1-[6-[2-[(2,7-dimethyl-3,4-dihydro-1H-isoquinolin-6-yl)methoxy]-5-methylphenyl]-2-pyridyl]-5-(trifluoromethyl)pyrazole-4-carboxylic acid] | 440 nM | 2.8 µg/mL (≈ 5.22 µM) | 1.2 μg/mL |  |
| Cc1ccc(OCc2ccc3c(c2)CCN(C)C3)c(-c2cccc(-c3ncc(C(=O)O)n3C)n2)c1 [Compound 41] | 4540 nM | > 58 µg/mL | 11.8 μg/mL |  |
| Cc1ccc(OCc2ccc3c(c2)CCN(C2CCOCC2)C3)c(-c2cccc(-c3ncc(C(=O)O)n3C)n2)c1 [Compound 66] | 1830 nM | > 53 µg/mL | >53 μg/mL |  |
| Cc1ccc(OCc2ccc3c(c2)CCN(CC2CCOC2)C3)c(-c2cccc(-c3csc(C(=O)O)c3C)n2)c1 (stereo not shown) [Compound 51] | 340 nM | 44.7 µg/mL (≈ 80.6 µM) | 35.9 μg/mL |  |
| Cc1ccc(OCc2ccc3c(c2C)CCN(C)C3)c(-c2cccc(-c3ncc(C(=O)O)n3C)n2)c1 [Compound 48, 2-{6-[2-(2,5-dimethyl-1,2,3,4-tetrahydroisoquinolin-6-ylmethoxy)-5-methylphenyl]pyridin-2-yl}-3-methyl-3H-imidazole-4-carboxylic acid] | 640 nM | 5.1 µg/mL (≈ 10.6 µM) | 1.9 μg/mL |  |
| Cc1ccc(OCc2ccc3c(c2)CCN(C2CCOCC2)C3)c(-c2cccc(-c3c(C)c(C(=O)O)nn3C)n2)c1 [Compound 79] | 1200 nM | > 80 µg/mL | >80 μg/mL |  |
| Cc1cccc(-c2cccc(-c3c(C)c(C(=O)O)nn3CCC(=O)O)n2)c1OCc1ccc2c(c1)CCN(C1CCOCC1)C2 [Compound 85] | 94 nM | > 60 µg/mL | >60 μg/mL |  |
| Cc1cccc(-c2cccc(-c3c(C)c(C(=O)O)nn3C(C)C)n2)c1OCc1ccc2c(c1)CCN(C1CCOCC1)C2 [Compound 83] | 50 nM | > 69 µg/mL | >69 μg/mL |  |
| Cc1ccc(OCc2ccc3c(c2)CCN(S(=O)(=O)CCCC(=O)O)C3)c(-c2cccc(-n3ncc(C(=O)O)c3C(F)(F)F)n2)c1 [Compound 3, 1-(6-{2-[2-(3-carboxypropane-1-sulfonyl)-1,2,3,4-tetrahydroisoquinolin-6-ylmethoxy]-5-methylphenyl}pyridin-2-yl)-5-trifluoromethyl-1H-pyrazole-4-carboxylic acid] | 27 nM | 0.8 µg/mL (≈ 1.21 µM) | >65 μg/mL |  |
| Cc1cccc(-c2cccc(-c3ncc(C(=O)O)n3C)n2)c1OCc1ccc2c(c1)CCN(CC1CCCOC1)C2 (stereo not shown) [Compound 73] | 47 nM | > 67 µg/mL | >67 μg/mL and >66 μg/mL | >66 μg/mL |
| Cc1ccc(OCc2ccc3c(c2C)CCN(C2CCOC2)C3)c(-c2cccc(-c3ncc(C(=O)O)n3C)n2)c1 (stereo not shown) [Compound 54] | 165 nM | > 76 µg/mL | 32.6 μg/mL |  |
